Inconclusive results and toxic doses are left out. Starred links: 1 amine or outer side, 2 acyl side, 3 side chain; linkers in the order of their positions; H or OH if unused. Positions of bridges follow the written chain, without caps; N, C: chain ends. Non-standard residues stand in square brackets, D forms with d. Residues, ends and D or L forms follow the SMILES beside them. ξ: configuration not given here. *: point of attachment. ξOrn(4,5-diOH) = O=C(C(CC(O)C(O)N[*:3])N[*:1])[*:2]; ξhTyr(βξ-OH,γξ-OH) = NC(C(=O)O)C(O)C(O)c1ccc(O)cc1; ξPro(3ξ-OH,4ξ-Me) = CC1CNC(C(=O)O)C1O; X4 = CCCCC/C=C/C/C=C\CCCCCCCC(=O)*; Hyp = O=C(O)[CH]1C[CH](O)CN1

This experiment deals with BDF1 mice, P388 leukemia ip, median survival T/C. The experiment in a line: NCI In Vivo Anticancer Drug Screen. Data for tumor model P388 Leukemia (intraperitoneal) in B6D2F1 (BDF1) mice. To be noted: endpoint: median survival time, higher = longer survival. In short, it runs like this:
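Mice carrying the transplantable tumour receive compound or vehicle. Survival is followed in each arm, and the treated measure is divided by the vehicle measure.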

The mark [1] stands for this setting: dose: 50.0 mg/kg/injection, schedule: Q01DX009 (ip), vehicle: saline with Tween-80.
Setting [2] is: dose: 100.0 mg/kg/injection, schedule: Q01DX009 (ip), vehicle: saline with Tween-80.
Where [3] appears, read: dose: 100.0 mg/kg/injection, schedule: Q01DX009 (ip), vehicle: water.
Setting [4] is: dose: 100.0 mg/kg/injection, schedule: Q04DX003 (ip), vehicle: water.
Where [5] appears, read: dose: 200.0 mg/kg/injection, schedule: Q01DX009 (ip), vehicle: water.
Setting [6] is: dose: 200.0 mg/kg/injection, schedule: Q04DX003 (ip), vehicle: water.
The mark [7] stands for this setting: dose: 400.0 mg/kg/injection, schedule: Q01DX009 (ip), vehicle: water.
[8] abbreviates: dose: 400.0 mg/kg/injection, schedule: Q04DX003 (ip), vehicle: water.
Setting [9] is: dose: 200.0 mg/kg/injection, schedule: Q01DX009 (ip), vehicle: saline with Tween-80.
Where [10] appears, read: dose: 400.0 mg/kg/injection, schedule: Q01DX009 (ip), vehicle: saline with Tween-80.

For the molecule `COc1ccc2cc3[n+](cc2c1OC)CCc1cc2c(cc1-3)OCO2`, the T/C was 104 % of control (dose: 1.0 mg/kg/injection, schedule: Q01DX010 (ip), vehicle: steriod suspending solution); 122 % of control (dose: 2.0 mg/kg/injection, schedule: Q01DX010 (ip), vehicle: steriod suspending solution); 104 % of control (dose: 6.0 mg/kg/injection, schedule: Q01DX010 (ip), vehicle: saline).

As to `CC(C)(C)C(O)CC(C)(O)C(C)(C)C` (stereo unspecified), the T/C runs as follows: (dose: 6.3 mg/kg/injection, schedule: Q01DX009 (ip), vehicle: Klucel (hydroxypropylcellulose) (HPC)) 101 % of control; (dose: 12.5 mg/kg/injection, schedule: Q01DX009 (ip), vehicle: Klucel (hydroxypropylcellulose) (HPC)) 107 % of control; (dose: 25.0 mg/kg/injection, schedule: Q01DX009 (ip), vehicle: Klucel (hydroxypropylcellulose) (HPC)) 108 % of control.

Turning to `CC(=O)Nc1cc(C(=O)O)cc(C(F)(F)F)c1`, the T/C was 115 % of control (dose: 100.0 mg/kg/injection, schedule: Q04DX003 (ip), vehicle: saline with Tween-80); 105 % of control (dose: 200.0 mg/kg/injection, schedule: Q04DX003 (ip), vehicle: saline with Tween-80); 95 % of control (dose: 400.0 mg/kg/injection, schedule: Q04DX003 (ip), vehicle: saline with Tween-80).

Regarding `CCCCOB(CCl)OCCCC`, the T/C runs as follows: (dose: 6.25 mg/kg/injection, schedule: Q01DX001 (ip), vehicle: saline) 104 % of control; (dose: 12.5 mg/kg/injection, schedule: Q01DX001 (ip), vehicle: saline) 100 % of control; (dose: 25.0 mg/kg/injection, schedule: Q01DX001 (ip), vehicle: saline) 100 % of control.

Regarding `O=[N+]([O-])c1ccccc1SNc1ccc(NSc2ccccc2[N+](=O)[O-])cc1`, the T/C by setting is: (dose: 3.13 mg/kg/injection, schedule: Q01DX001 (ip), vehicle: saline with Tween-80) 104 % of control; (dose: 6.25 mg/kg/injection, schedule: Q01DX001 (ip), vehicle: saline with Tween-80) 109 % of control; (dose: 12.5 mg/kg/injection, schedule: Q01DX001 (ip), vehicle: saline with Tween-80) 95 % of control.

For `CC(C)(C)NCCC(O)c1cc(C(F)(F)F)nc2c(C(F)(F)F)cccc12` (stereo unspecified), the T/C by setting is: under setting [1], 105 % of control; under setting [2], 104 % of control.

Turning to `CCCCCc1cc(/C=C2/N=C(c3ccc[nH]3)C=C2OC)[nH]c1C`, the T/C is 118 % of control (dose: 1.0 mg/kg/injection, schedule: Q01DX009 (ip), vehicle: other) and 118 % of control (dose: 2.0 mg/kg/injection, schedule: Q01DX009 (ip), vehicle: other).

Take `CC(C)(N)CCC(C)(C)NCCC#N`: the T/C (dose: 50.0 mg/kg/injection, schedule: Q01DX009 (ip), vehicle: water) was 103 % of control; the T/C under setting [3] is 99 % of control; the T/C under setting [4] is 110 % of control; the T/C under setting [5] is 122 % of control; the T/C under setting [6] is 103 % of control; the T/C under setting [7] is 114 % of control. Moreover, the T/C under setting [8] was 103 % of control.

As to `COCn1cc(C(N)=O)c(=O)c2c(N)nc(SC)nc21`, the T/C runs as follows: (dose: 100.0 mg/kg/injection, schedule: Q04DX002 (ip), vehicle: saline with Tween-80) 90 % of control; (dose: 400.0 mg/kg/injection, schedule: Q04DX002 (ip), vehicle: saline with Tween-80) 96 % of control.

For the molecule `NC(Cc1nn[nH]n1)C(=O)O` (stereo unspecified), the T/C under setting [3] is 100 % of control; the T/C under setting [4] is 97 % of control; the T/C under setting [5] is 94 % of control; the T/C under setting [6] was 96 % of control; the T/C under setting [7] is 94 % of control; the T/C under setting [8] was 90 % of control.

For `CCCCCCCCCCCCCCCCNC(=S)Nc1ccc(C(=O)O)cc1`, the T/C is, setting by setting: (dose: 50.0 mg/kg/injection, schedule: Q01DX001 (ip), vehicle: Klucel (hydroxypropylcellulose) (HPC)) 113 % of control; (dose: 100.0 mg/kg/injection, schedule: Q01DX001 (ip), vehicle: Klucel (hydroxypropylcellulose) (HPC)) 109 % of control; (dose: 200.0 mg/kg/injection, schedule: Q01DX001 (ip), vehicle: Klucel (hydroxypropylcellulose) (HPC)) 100 % of control.

Regarding `CCOC(=O)C(CCCCC(NC(C)=O)(C(=O)OCC)C(=O)OCC)(NC(C)=O)C(=O)OCC`, the T/C is 95 % of control under setting [2], 100 % of control under setting [9] and 104 % of control under setting [10].

Take `Cc1ccc2cc3c(ccc4ccccc43)c3c2c1CC3`: the T/C was 117 % of control (dose: 7.4 mg/kg/injection, schedule: Q01DX009 (ip), vehicle: saline with Tween-80); 122 % of control (dose: 25.0 mg/kg/injection, schedule: Q01DX009 (ip), vehicle: saline with Tween-80); 154 % of control under setting [1]; 122 % of control (dose: 75.0 mg/kg/injection, schedule: Q01DX009 (ip), vehicle: saline with Tween-80); 118 % of control (dose: 88.0 mg/kg/injection, schedule: Q04DX003 (ip), vehicle: saline with Tween-80); 162 % of control under setting [2]. Further, the T/C (dose: 132.0 mg/kg/injection, schedule: Q04DX003 (ip), vehicle: saline with Tween-80) was 118 % of control; the T/C (dose: 300.0 mg/kg/injection, schedule: Q01DX009 (ip), vehicle: saline with Tween-80) was 163 % of control; the T/C (dose: 300.0 mg/kg/injection, schedule: Q04DX003 (ip), vehicle: saline with Tween-80) was 118 % of control.

On to `NC(CC(=O)O)c1nn[nH]n1` (stereo unspecified), for which the T/C is 95 % of control under setting [2], 95 % of control under setting [9] and 100 % of control under setting [10].

For `Nc1ncccc1C(=O)O`, the T/C runs as follows: (dose: 62.5 mg/kg/injection, schedule: Q01DX010 (ip), vehicle: saline) 90 % of control; (dose: 125.0 mg/kg/injection, schedule: Q01DX010 (ip), vehicle: saline) 100 % of control; (dose: 250.0 mg/kg/injection, schedule: Q01DX010 (ip), vehicle: carboxymethylcellulose (CMC)) 113 % of control; (dose: 500.0 mg/kg/injection, schedule: Q01DX010 (ip), vehicle: carboxymethylcellulose (CMC)) 100 % of control.

As for `CCCCC/C=C/C/C=C\CCCCCCCC(=O)NC1CC(O)C(O)NC(=O)C2C(O)C(C)CN2C(=O)C(C(C)O)NC(=O)C(C(O)C(O)c2ccc(O)cc2)NC(=O)C2CC(O)CN2C(=O)C(C(C)O)NC1=O` (stereo not drawn) (X4-[ξOrn(4,5-diOH)]T[Hyp][ξhTyr(βξ-OH,γξ-OH)]T[ξPro(3ξ-OH,4ξ-Me)]; lactam 1-C; configuration not given here), the T/C was 100 % of control (dose: 0.5 mg/kg/injection, schedule: Q01DX009 (ip), vehicle: lactate); 102 % of control (dose: 1.0 mg/kg/injection, schedule: Q01DX009 (ip), vehicle: lactate); 102 % of control (dose: 2.0 mg/kg/injection, schedule: Q01DX009 (ip), vehicle: lactate); 100 % of control (dose: 4.0 mg/kg/injection, schedule: Q01DX009 (ip), vehicle: lactate).

`CC(O)C#N` (stereo unspecified): the T/C was 108 % of control (dose: 1.25 mg/kg/injection, schedule: Q01DX009 (ip), vehicle: saline); 101 % of control (dose: 2.5 mg/kg/injection, schedule: Q01DX009 (ip), vehicle: saline); 101 % of control (dose: 5.0 mg/kg/injection, schedule: Q01DX009 (ip), vehicle: saline).

In the case of `Cc1ccc(OC/C=C/CS(=O)(=O)c2ccc(Cl)cc2)cc1`, the T/C reads like this: (dose: 100.0 mg/kg/injection, schedule: Q04DX003 (ip), vehicle: Klucel (hydroxypropylcellulose) (HPC)) 95 % of control; (dose: 200.0 mg/kg/injection, schedule: Q04DX003 (ip), vehicle: Klucel (hydroxypropylcellulose) (HPC)) 95 % of control; (dose: 400.0 mg/kg/injection, schedule: Q04DX003 (ip), vehicle: Klucel (hydroxypropylcellulose) (HPC)) 104 % of control.
